Target: H1047R PIK3CA enzyme (Homo sapiens, UniProt P42336, H1047R)
Assay: ADP-Glo Biochemical PIK3CA Kinase Assay

Sequence of H1047R PIK3CA enzyme (P42336 whole entry H1047R): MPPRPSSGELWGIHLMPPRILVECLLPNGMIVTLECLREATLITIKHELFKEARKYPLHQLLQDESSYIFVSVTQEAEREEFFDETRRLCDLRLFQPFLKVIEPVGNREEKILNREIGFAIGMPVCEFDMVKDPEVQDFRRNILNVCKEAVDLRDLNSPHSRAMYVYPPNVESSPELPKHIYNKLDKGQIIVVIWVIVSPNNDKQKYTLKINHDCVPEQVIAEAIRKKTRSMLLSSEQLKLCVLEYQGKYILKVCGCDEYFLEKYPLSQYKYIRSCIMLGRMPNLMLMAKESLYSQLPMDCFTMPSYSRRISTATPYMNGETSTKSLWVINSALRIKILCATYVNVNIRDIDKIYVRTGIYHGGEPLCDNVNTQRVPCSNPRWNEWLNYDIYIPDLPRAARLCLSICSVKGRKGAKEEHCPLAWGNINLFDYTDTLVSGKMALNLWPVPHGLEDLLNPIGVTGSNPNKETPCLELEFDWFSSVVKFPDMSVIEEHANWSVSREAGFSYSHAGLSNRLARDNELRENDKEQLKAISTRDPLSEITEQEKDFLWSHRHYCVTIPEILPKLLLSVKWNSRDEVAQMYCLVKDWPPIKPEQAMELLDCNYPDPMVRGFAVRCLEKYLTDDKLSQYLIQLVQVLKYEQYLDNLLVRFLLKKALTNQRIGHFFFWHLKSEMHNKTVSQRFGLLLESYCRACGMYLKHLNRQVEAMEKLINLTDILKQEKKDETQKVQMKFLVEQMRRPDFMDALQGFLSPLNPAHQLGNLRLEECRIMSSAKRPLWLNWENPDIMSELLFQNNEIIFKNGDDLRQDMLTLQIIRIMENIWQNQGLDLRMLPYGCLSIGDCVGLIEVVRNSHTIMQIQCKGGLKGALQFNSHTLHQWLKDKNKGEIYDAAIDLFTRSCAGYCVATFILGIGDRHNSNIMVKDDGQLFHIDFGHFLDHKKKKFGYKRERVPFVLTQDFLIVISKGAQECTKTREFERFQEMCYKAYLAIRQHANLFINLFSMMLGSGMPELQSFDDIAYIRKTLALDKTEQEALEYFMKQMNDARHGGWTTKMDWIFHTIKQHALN
Sequence of H1047R PIK3CA enzyme (P27986 whole entry partner): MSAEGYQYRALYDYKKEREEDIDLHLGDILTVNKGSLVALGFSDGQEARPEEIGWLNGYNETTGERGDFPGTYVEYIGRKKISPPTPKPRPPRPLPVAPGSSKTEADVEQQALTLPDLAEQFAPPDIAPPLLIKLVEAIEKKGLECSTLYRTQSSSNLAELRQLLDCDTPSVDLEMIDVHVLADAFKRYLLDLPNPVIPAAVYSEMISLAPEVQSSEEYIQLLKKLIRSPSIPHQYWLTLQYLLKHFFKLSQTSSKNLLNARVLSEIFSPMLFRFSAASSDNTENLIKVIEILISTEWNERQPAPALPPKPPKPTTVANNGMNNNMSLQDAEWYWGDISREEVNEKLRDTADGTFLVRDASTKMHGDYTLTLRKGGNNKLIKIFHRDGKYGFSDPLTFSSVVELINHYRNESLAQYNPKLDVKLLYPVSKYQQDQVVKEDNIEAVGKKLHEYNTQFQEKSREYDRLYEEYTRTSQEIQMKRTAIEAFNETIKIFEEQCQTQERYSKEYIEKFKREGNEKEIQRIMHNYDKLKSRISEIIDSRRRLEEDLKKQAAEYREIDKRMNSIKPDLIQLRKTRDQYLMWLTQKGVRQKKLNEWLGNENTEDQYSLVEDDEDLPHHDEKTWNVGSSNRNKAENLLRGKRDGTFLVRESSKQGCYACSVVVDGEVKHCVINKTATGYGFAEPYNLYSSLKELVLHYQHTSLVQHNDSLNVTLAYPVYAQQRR

Structure (SMILES)	IC50 [nM]
Cn1ncc(-c2cc(NC(=O)c3cc(F)cc(C(F)(F)F)c3)c3c(c2)C(=O)N[C@@H]3c2cc(F)ccc2Cl)c1C#N [Compound I-1794]	1000 to 10000
O=C(Nc1cc(Br)cc2c1C(c1ccccc1Cl)NC2=O)c1cc(F)cc(C(F)(F)F)c1 (stereo not shown) [Compound I-394]	100 to 500
O=C(Nc1cc(-c2cnn3ncnc3c2)cc2c1C(c1cc(F)ccc1Cl)NC2=O)c1cc(F)cc(C(F)(F)F)c1 (stereo not shown) [Compound I-1824]	≤ 100
Cn1cc(Nc2cc(NC(=O)c3cc(F)cc(C(F)(F)F)c3)c3c(c2)C(=O)N[C@@H]3c2cc(F)ccc2Cl)cn1 (single isomer, unassigned) [Compound I-998]	500 to 1000
O=C1NC(c2cc(F)ccc2Cl)c2c1cc(-c1ccc3ncnn3c1)cc2-n1ccc2c(F)cc(C(F)(F)F)cc2c1=O (stereo not shown) [Compound I-2016]	1000 to 10000
CN(C)c1ncc(-c2cc(NC(=O)c3cc(F)cc(C(F)(F)F)c3)c3c(c2)C(=O)NC3c2cc(F)ccc2Cl)cn1 (stereo not shown) [Compound I-1222]	≤ 100
Cc1ncc(-c2cc(NC(=O)c3cc(F)cc(C(F)(F)F)c3)c3c(c2)C(=O)NC3c2cc(F)ccc2Cl)c(N)n1 (stereo not shown) [Compound I-1122]	≤ 100
CC(C)[C@H](N)C(=O)N1C(=O)c2cc(-c3ccc4ncnn4c3)cc(NC(=O)c3cc(F)cc(C(F)(F)F)c3)c2C1c1cc(F)ccc1Cl (stereo partly shown) [Compound I-1343]	≤ 100
Cc1c(-c2cc(NC(=O)c3cc(F)cc(Cl)c3)c3c(n2)C(=O)NC3c2cc(F)ccc2Cl)cnn1C (stereo not shown) [Compound I-381]	100 to 500
O=C(Nc1cc(CS(=O)(=O)c2ncccn2)cc2c1C(c1cc(F)ccc1Cl)NC2=O)c1cc(F)cc(C(F)(F)F)c1 (stereo not shown) [Compound I-1570]	≤ 100
Cn1cncc1-c1cc(NC(=O)c2cc(F)cc(C(F)(F)F)c2)c2c(c1)C(=O)NC2c1cc(F)ccc1Cl (stereo not shown) [Compound I-1272]	≤ 100
O=C(Nc1cc(-c2cn3cccnc3n2)cc2c1C(c1cc(F)ccc1Cl)NC2=O)c1cc(F)cc(C(F)(F)F)c1 (stereo not shown) [Compound I-1355]	≤ 100
N#Cc1cc(-c2cc(NC(=O)c3cc(F)cc(C(F)(F)F)c3)c3c(c2)C(=O)NC3c2cc(F)ccc2Cl)cn2ncnc12 (stereo not shown) [Compound I-1822]	≤ 100
COc1ncc2c(c1NC(=O)c1cc(F)cc(C(F)(F)F)c1)C(c1ccccc1Cl)NC2=O (stereo not shown) [Compound I-335, N-(1-(2-chlorophenyl)-6-methoxy-3-oxo-2,3-dihydro-1H-pyrrolo[3,4-c]pyridin-7-yl)-3-fluoro-5-(trifluoromethyl)benzamide]	10000 to 100000
N#Cc1cncn1Cc1cc(NC(=O)c2cc(F)cc(C(F)(F)F)c2)c2c(c1)C(=O)N[C@H]2c1cc(F)ccc1Cl (stereo in doubt) [Compound I-1748]	≤ 100
N#Cc1c(-c2cc(NC(=O)c3cc(F)cc(C(F)(F)F)c3)c3c(c2)C(=O)NC3c2cc(F)ccc2Cl)cnn1C(F)F (stereo not shown) [Compound I-1862]	≤ 100
O=C(Nc1ccnc2c1C(c1ccccc1Cl)NC2=O)c1cc(F)cc(C(F)(F)F)c1 (stereo not shown) [Compound I-208]	500 to 1000
COc1ccc([C@H](C)N2C(=O)c3cc(Br)cc(N)c3[C@H]2c2cc(F)ccc2Cl)cc1 (racemic) [Compound I-862]	1000 to 10000
Cc1ccccc1C1(C)NC(=O)c2cccc(NC(=O)c3csc4ccccc34)c21 (stereo not shown) [Compound I-80, N-(3-Methyl-1-oxo-3-(o-tolyl)isoindolin-4-yl)benzo[b]thiophene-3-carboxamide]	10000 to 100000
CNC(=O)c1cc(NC(=O)c2nsc3ccccc23)c2c(c1)C(=O)NC2c1ccccc1C (stereo not shown) [Compound I-123]	≤ 100
COc1cccc(-c2cccc3c2C(c2ccccc2C)NC3=O)n1 (stereo not shown) [Compound I-14]	10000 to 100000
O=C(Nc1cc(-c2ccc3nc(C(F)F)nn3c2)cc2c1[C@@H](c1cc(F)ccc1Cl)NC2=O)c1cc(F)cc(C(F)(F)F)c1 [Compound I-1986]	1000 to 10000
O=C(Nc1cc(-c2cnn3ncnc3c2)cc2c1[C@@H](c1cc(F)ccc1Cl)NC2=O)c1cc(F)cc(C(F)(F)F)c1 [Compound I-1871]	100 to 500
Nc1nc2ccc(-c3cc(NC(=O)c4cc(F)cc(C(F)(F)F)c4)c4c(c3)C(=O)N[C@@H]4c3cc(F)ccc3Cl)cn2n1 [Compound I-1444]	≤ 100
O=C(Nc1cccc2c1C(=O)NS2(=O)=O)c1cc(F)cc(C(F)(F)F)c1 [Compound I-472]	10000 to 100000
O=C(Nc1cc(-c2ccc3ncnn3c2)cc2c1[C@H](c1cc(F)ccc1Cl)NC2=O)c1cc(F)cc(Cl)c1 (stereo in doubt) [Compound I-1165]	≤ 100

Next, values leading:

IC50 [nM]	Structure (SMILES)
≤ 100	O=C(Nc1cc(N2CCOCC2)nc2c1C(c1cc(F)ccc1Cl)NC2=O)c1cc(F)cc(C(F)(F)F)c1 (stereo not shown) [Compound I-358]
1000 to 10000	CN1CCCC(C(=O)Nc2cc(-c3ccc4ncnn4c3)cc3c2C(c2cc(F)ccc2Cl)NC3=O)C1 (stereo not shown) [Compound I-1792]
≤ 100	NS(=O)(=O)Cc1cc(NC(=O)c2cc(F)cc(C(F)(F)F)c2)c2c(c1)C(=O)N[C@H]2c1cc(F)ccc1Cl [Compound I-1480]
1000 to 10000	COC(=O)c1cc(Nc2cccc3c2C(c2cc(F)ccc2Cl)NC3=O)ncc1C(F)(F)F (stereo not shown) [Compound I-1238]
1000 to 10000	C[C@]1(C(=O)Nc2cc(Br)cc3c2[C@H](c2cc(F)ccc2Cl)NC3=O)CCC[C@@H](C(F)(F)F)C1 (single isomer, unassigned) [Compound I-2263]
500 to 1000	O=C(Nc1cc(Br)cc2c1C(c1cc(F)ccc1Cl)NC2=O)c1cc(F)cc(Cl)c1F (stereo not shown) [Compound I-836]
10000 to 100000	O=C1NC(c2cc(F)ccc2Cl)c2c(NC(=O)N3CCSC3)cccc21 (stereo not shown) [Compound I-2428]
≤ 100	CS(=O)(=O)N1CCC[C@@H]1COc1cc(NC(=O)c2cc(F)cc(C(F)(F)F)c2)c2c(c1)C(=O)NC2c1cc(F)ccc1Cl (single isomer, unassigned) [Compound I-1378]
1000 to 10000	NCCc1cc(NC(=O)N2C[C@H](O)c3cc(F)ccc32)c2c(c1)C(=O)N[C@H]2c1cc(F)ccc1Cl (single isomer, unassigned) [Compound I-2445]
10000 to 100000	O=C1N[C@@H](c2cc(F)ccc2Cl)c2c(NC(=O)[C@H]3CCCCN3)cc(-c3ccc4ncnn4c3)cc21 (racemic) [Compound I-1779]
100 to 500	O=C(CO)Nc1cc(NC(=O)c2cc(F)cc(C(F)(F)F)c2)c2c(c1)C(=O)N[C@@H]2c1cc(F)ccc1Cl [Compound I-512]
≤ 100	CC1(Nc2cc(NC(=O)c3cc(F)cc(C(F)(F)F)c3)c3c(c2)C(=O)NC3c2cc(F)ccc2Cl)COC1 (stereo not shown) [Compound I-610]
1000 to 10000	CCC[C@@]1(O)CN(C(=O)Nc2cccc3c2[C@H](c2cc(F)ccc2Cl)NC3=O)c2ccc(F)cc21 (single isomer, unassigned) [Compound I-2459]
10000 to 100000	O=C1CCc2cc(F)cc(C(=O)Nc3cccc4c3C(c3cc(F)ccc3Cl)NC4=O)c2N1 (stereo not shown) [Compound I-1545]
≤ 100	O=C(Nc1cc(NCC(F)F)cc2c1C(c1cc(F)ccc1Cl)NC2=O)c1cc(F)cc(C(F)(F)F)c1 (stereo not shown) [Compound I-275]
1000 to 10000	CC(C)[C@@]1(O)CN(C(=O)Nc2cccc3c2[C@H](c2cc(F)ccc2Cl)NC3=O)c2ccc(F)cc21 (single isomer, unassigned) [Compound I-2452]
100 to 500	O=C(Nc1cc(Cn2cccn2)cc2c1[C@@H](c1cc(F)ccc1Cl)NC2=O)c1cc(F)cc(C(F)(F)F)c1 (stereo in doubt) [Compound I-1614]
1000 to 10000	O=C1NC(c2cc(F)ccc2Cl)c2c(NC(=O)C3CC4(C3)CC(F)(F)C4)cc(Br)cc21 (stereo not shown) [Compound I-1622]

IC50 [nM]	Structure (SMILES)
≤ 100	Cn1nccc1C(=O)c1cc(NC(=O)c2cc(F)cc(C(F)(F)F)c2)c2c(c1)C(=O)NC2c1cc(F)ccc1Cl (stereo not shown) [Compound I-1380]
≤ 100	O=C1NC(c2cc(F)ccc2C(F)F)c2c(NC(=O)c3nsc4ccccc34)cc(Br)cc21 (stereo not shown) [Compound I-612]
≤ 100	COc1cc(NC(=O)c2cc(F)cc(C(F)(F)F)c2)c2c(c1)C(=O)NC2c1cc(F)ccc1Cl (stereo not shown) [Compound I-773]
10000 to 100000	O=C1NC(c2cc(F)ccc2Cl)c2c(NC(=O)C34CC(C(O)(C5CC5)C5CC5)(C3)C4)cccc21 (stereo not shown) [Compound I-2118]
100 to 500	CC(C)(O)c1cc(NC(=O)c2cc(F)cc(C(F)(F)F)c2)c2c(c1)C(=O)NC2c1ccccc1Cl (stereo not shown) [Compound I-439]
10000 to 100000	O=C(Nc1ccccc1)Nc1cc(Br)cc2c1[C@H](c1cc(F)ccc1Cl)NC2=O (stereo in doubt) [Compound I-1945]
1000 to 10000	O=C1NC(c2cccnc2Cl)c2c(NC(=O)c3nsc4ccccc34)cccc21 (stereo not shown) [Compound I-158]
10000 to 100000	O=C1CCC[C@@H]([C@H]2NC(=O)c3cccc(NC(=O)c4cc(F)cc(C(F)(F)F)c4)c32)C1 (single isomer, unassigned) [Compound I-2253]
10000 to 100000	O=C1N[C@@H](c2ccccc2Cl)c2c(NC(=O)N3C[C@](O)(C(F)(F)F)c4cc(F)ccc43)cccc21 (single isomer, unassigned) [Compound I-2686]
1000 to 10000	O=C1N[C@@H](c2cc(F)ccc2Cl)c2c(NC(=O)N3C[C@@H](O)C[C@@H]3CC(F)(F)F)cccc21 (racemic) [Compound I-2164]
≤ 100	O=C(Nc1cc(C2CN(C3COC3)C2)cc2c1C(c1cc(F)ccc1Cl)NC2=O)c1cc(F)cc(C(F)(F)F)c1 (stereo not shown) [Compound I-1280]
≤ 100	O=CNc1nc(-c2cc(NC(=O)c3cc(F)cc(C(F)(F)F)c3)c3c(c2)C(=O)NC3c2cc(F)ccc2Cl)ccc1O (stereo not shown) [Compound I-1552]
1000 to 10000	N#CCc1cc(NC(=O)N2C[C@@](O)(C(F)(F)F)c3ccccc32)c2c(c1)C(=O)N[C@H]2c1cc(F)ccc1Cl (single isomer, unassigned) [Compound I-2602]
≤ 100	N#Cc1cccc(S(=O)(=O)Cc2cc(NC(=O)c3cc(F)cc(C(F)(F)F)c3)c3c(c2)C(=O)NC3c2cc(F)ccc2Cl)c1 (stereo not shown) [Compound I-1491]
1000 to 10000	O=C1NC(c2cc(F)ccc2Cl)c2c(NC(=O)N3CCc4ccc(C(F)(F)F)cc43)cccc21 (stereo not shown) [Compound I-2447]
10000 to 100000	O=C1NC(c2cc(F)ccc2Cl)c2c(NC(=O)C3COCCN3)cc(-c3ccc4ncnn4c3)cc21 (mixture of isomers) [Compound I-1991]
≤ 100	O=C1N[C@@H](c2cc(F)ccc2Cl)c2c(NC(=O)c3nsc4ccccc34)cc(-c3ccc4ncnn4c3)cc21 (stereo in doubt) [Compound I-1829]

Source: US12581252B2, “Substituted pyrrolo[3,4-b]pyridines as PI3K-α inhibitors” (Relay Therapeutics, Inc., priority 2020, dated 2026)
